Results taken from US12281149B2, “Modulators of G-protein coupled receptors” (priority 2021, dated 2025).
*1 amine or outer side, *2 acyl side, *3 side chain or, on linkers, in order; H or OH if unused. Where a SMILES comes first, the peptide text is derived from it. Side-chain parts run from the residue outwards. [ ]: non-standard residue; d: D form. The star is where a group is joined. Isobutyryl(2-(3-CN-5-F-Ph)) = CC(C)(C(=O)*)c1cc(F)cc(C#N)c1; C20 diacid = O=C(O)CCCCCCCCCCCCCCCCCCC(=O)*; X52 = CC(C)(C(=O)*)c1cc(F)cc(OC(F)(F)F)c1; γGlu = O=C(O)[C@H](CCC(=O)[*:2])N[*:1]; Gla = N[C@@H](CC(C(=O)O)C(=O)O)C(=O)O; β3hE = N[C@@H](CCC(=O)O)CC(=O)O; β3hD = NC(CC(=O)O)CC(=O)O; AEEA = NCCOCCOCC(=O)O; Aib = CC(C)(N)C(=O)O; βAla = NCCC(=O)O

Columns and labels:
Format in all cases: cell-based
GLP-1 receptor [1] = biological target: T1, GLP-1 receptor (Homo sapiens, UniProt P43220); assay: HitHunter cAMP assay, GLP-1 receptor; details: for EC50: CHO cells stably expressing human GLP-1 receptor, cAMP accumulation, 30 min, read-out: EC50 GLP-1R; for Emax: CHO cells, cAMP, normalized to maximum signal from GLP-1 (high) and DMSO (low), read-out: Emax GLP-1R
T1 sequence (P43220 24-463): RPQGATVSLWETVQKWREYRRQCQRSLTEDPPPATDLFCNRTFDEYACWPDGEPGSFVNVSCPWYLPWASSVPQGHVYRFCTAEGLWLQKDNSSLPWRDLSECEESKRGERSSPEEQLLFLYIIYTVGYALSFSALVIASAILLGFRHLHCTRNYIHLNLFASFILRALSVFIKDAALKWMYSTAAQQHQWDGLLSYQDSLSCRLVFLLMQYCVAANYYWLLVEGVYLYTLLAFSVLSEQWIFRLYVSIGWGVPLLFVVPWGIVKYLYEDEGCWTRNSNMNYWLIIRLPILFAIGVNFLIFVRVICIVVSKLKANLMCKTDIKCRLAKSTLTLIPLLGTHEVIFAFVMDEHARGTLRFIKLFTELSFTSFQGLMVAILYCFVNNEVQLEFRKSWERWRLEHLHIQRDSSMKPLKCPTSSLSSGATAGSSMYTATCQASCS

GIP receptor [2] = biological target: T2, GIP receptor (Homo sapiens, UniProt P48546); assay: HitHunter cAMP assay, GIP receptor; details: for EC50: CHO cells stably expressing GIP receptor, cAMP accumulation, 30 min, read-out: EC50 GIP-1R; for Emax: CHO cells, cAMP, normalized to maximum signal from GIP (high) and DMSO (low), read-out: Emax GIP-1R
T2 sequence (P48546 22-466): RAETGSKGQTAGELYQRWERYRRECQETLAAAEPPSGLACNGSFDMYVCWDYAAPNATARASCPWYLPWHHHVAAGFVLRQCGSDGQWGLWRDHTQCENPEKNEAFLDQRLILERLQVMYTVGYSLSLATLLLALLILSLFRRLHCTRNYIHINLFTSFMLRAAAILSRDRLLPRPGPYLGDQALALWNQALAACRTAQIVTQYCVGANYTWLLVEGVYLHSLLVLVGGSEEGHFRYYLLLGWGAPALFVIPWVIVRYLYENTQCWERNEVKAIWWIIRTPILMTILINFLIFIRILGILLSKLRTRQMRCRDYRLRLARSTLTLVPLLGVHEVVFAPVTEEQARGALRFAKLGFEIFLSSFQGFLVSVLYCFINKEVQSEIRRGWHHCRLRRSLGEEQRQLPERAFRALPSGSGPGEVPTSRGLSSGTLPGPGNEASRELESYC

GIP receptor [3] = biological target: T2, GIP receptor; assay: PathHunter β-arrestin assay, GIP receptor; parameters: host or cells: PathHunter CHO-K1 GIPR β-Arrestin Cell Line; details: β-arrestin-2 recruitment, PathHunter CHO-K1 GIPR β-Arrestin Cell Line, 90 min at 37° C.; normalized to GIP; read-out: GIPR β Arrestin EC50
GLP-1 receptor [4] = biological target: T1, GLP-1 receptor; assay: PathHunter β-arrestin assay, GLP-1 receptor; parameters: host or cells: PathHunter CHO-K1 GLP1R β-Arrestin Cell Line; details: β-arrestin-2 recruitment, PathHunter CHO-K1 GLP1R β-Arrestin Cell Line, 90 min at 37° C.; normalized to GLP-1; read-out: GLP-1R β Arrestin EC50

SMILES | EC50 (GLP-1 receptor [1]) | Emax (GLP-1 receptor [1]) | EC50 (GIP receptor [2]) | Emax (GIP receptor [2]) | EC50 (GIP receptor [3]) | EC50 (GLP-1 receptor [4])
CC[C@H](C)[C@H](NC(=O)[C@H](CC(C)C)NC(=O)[C@H](Cc1c[nH]c2ccccc12)NC(=O)[C@H](CCC(N)=O)NC(=O)[C@@H](NC(=O)[C@H](Cc1ccccc1)NC(=O)[C@H](C)NC(=O)[C@H](CCCCNC(=O)COCCOCCNC(=O)COCCOCCNC(=O)CC[C@H](NC(=O)CCCCCCCCCCCCCCCCCCC(=O)O)C(=O)O)NC(=O)[C@H](CCC(N)=O)NC(=O)[C@H](C)NC(=O)[C@@H](NC(=O)[C@H](CCCCN)NC(=O)[C@H](CC(=O)O)NC(=O)[C@H](CC(C)C)NC(=O)C(C)(C)NC(=O)[C@@H](NC(=O)[C@H](CO)NC(=O)[C@H](Cc1ccc(O)cc1)NC(=O)[C@H](CC(=O)O)NC(=O)[C@H](CO)NC(=O)[C@@H](NC(=O)[C@H](Cc1ccccc1)NC(=O)[C@@H](NC(=O)CNC(=O)[C@H](CC(C(=O)O)C(=O)O)NC(=O)CCNC(=O)C(C)(C)c1cc(F)cc(C#N)c1)[C@@H](C)O)[C@@H](C)O)[C@@H](C)CC)[C@@H](C)CC)C(C)C)C(=O)N[C@@H](C)C(=O)NCC(=O)NCC(=O)N1CCC[C@H]1C(=O)N[C@@H](CO)C(=O)N[C@@H](CO)C(=O)NCC(=O)N[C@@H](C)C(=O)N1CCC[C@H]1C(=O)N1CCC[C@H]1C(=O)N1CCC[C@H]1C(=O)N[C@@H](CO)C(N)=O [Compound 111] ({Isobutyryl(2-(3-CN-5-F-Ph))-βAla}-[Gla]GTFTSDYSI[Aib]LDKIAQK([AEEA-AEEA-γGlu-C20 diacid])AFVQWLIAGGPSSGAPPPS-NH2) | 1 to 10 nM | 95% | 10 to 100 nM | 105% | > 1000 nM | > 1000 nM
CC[C@H](C)[C@H](NC(=O)[C@H](CC(C)C)NC(=O)[C@H](Cc1c[nH]c2ccccc12)NC(=O)[C@H](CCC(N)=O)NC(=O)[C@@H](NC(=O)[C@H](Cc1ccccc1)NC(=O)[C@H](C)NC(=O)[C@H](CCCCNC(=O)COCCOCCNC(=O)COCCOCCNC(=O)CC[C@H](NC(=O)CCCCCCCCCCCCCCCCCCC(=O)O)C(=O)O)NC(=O)[C@H](CCC(N)=O)NC(=O)[C@H](C)NC(=O)[C@@H](NC(=O)[C@H](CCCCN)NC(=O)[C@H](CC(=O)O)NC(=O)[C@H](CC(C)C)NC(=O)C(C)(C)NC(=O)[C@@H](NC(=O)[C@H](CO)NC(=O)[C@H](Cc1ccc(O)cc1)NC(=O)[C@H](CC(=O)O)NC(=O)[C@H](CO)NC(=O)[C@@H](NC(=O)[C@H](Cc1ccccc1)NC(=O)[C@@H](NC(=O)CNC(=O)[C@H](CCC(=O)O)NC(=O)CCNC(=O)C(C)(C)c1cc(F)cc(OC(F)(F)F)c1)[C@@H](C)O)[C@@H](C)O)[C@@H](C)CC)[C@@H](C)CC)C(C)C)C(=O)N[C@@H](C)C(=O)NCC(=O)NCC(=O)N1CCC[C@H]1C(=O)N[C@@H](CO)C(=O)N[C@@H](CO)C(=O)NCC(=O)N[C@@H](C)C(=O)N1CCC[C@H]1C(=O)N1CCC[C@H]1C(=O)N1CCC[C@H]1C(=O)N[C@@H](CO)C(N)=O [Compound 112] ({X52-βAla}-EGTFTSDYSI[Aib]LDKIAQK([AEEA-AEEA-γGlu-C20 diacid])AFVQWLIAGGPSSGAPPPS-NH2) | 1 to 10 nM | 115% | 100 to 1000 nM | 99% | > 1000 nM | > 1000 nM
CC[C@H](C)[C@H](NC(=O)[C@H](CO)NC(=O)[C@H](Cc1ccc(O)cc1)NC(=O)[C@H](CC(=O)O)NC(=O)[C@H](CO)NC(=O)[C@@H](NC(=O)[C@H](Cc1ccccc1)NC(=O)[C@@H](NC(=O)CNC(=O)[C@H](CCC(=O)O)NC(=O)CCNC(=O)C(C)(C)c1cc(F)cc(C#N)c1)[C@@H](C)O)[C@@H](C)O)C(=O)N[C@@H](Cc1ccc(O)cc1)C(=O)N[C@@H](CC(C)C)C(=O)N[C@@H](CC(=O)O)C(=O)N[C@@H](CCCCN)C(=O)N[C@@H](CCCCNC(=O)COCCOCCNC(=O)COCCOCCNC(=O)CC[C@H](NC(=O)CCCCCCCCCCCCCCCCCCC(=O)O)C(=O)O)C(=O)N[C@@H](C)C(=O)N[C@@H](C)C(=O)NC(C)(C)C(=O)N[C@@H](CCC(=O)O)C(=O)N[C@@H](Cc1ccccc1)C(=O)N[C@H](C(=O)N[C@@H](CC(N)=O)C(=O)N[C@@H](Cc1c[nH]c2ccccc12)C(=O)N[C@@H](CC(C)C)C(=O)N[C@@H](CC(C)C)C(=O)N[C@@H](C)C(=O)NCC(=O)NCC(=O)N1CCC[C@H]1C(=O)N[C@@H](CO)C(=O)N[C@@H](CO)C(=O)NCC(=O)N[C@@H](C)C(=O)N1CCC[C@H]1C(=O)N1CCC[C@H]1C(=O)N1CCC[C@H]1C(=O)N[C@@H](CO)C(N)=O)C(C)C [Compound 114] ({Isobutyryl(2-(3-CN-5-F-Ph))-βAla}-EGTFTSDYSIYLDKK([AEEA-AEEA-γGlu-C20 diacid])AA[Aib]EFVNWLLAGGPSSGAPPPS-NH2) | 0.1 to 1 nM | 114% | 10 to 100 nM | 95% | > 1000 nM | > 1000 nM
CC[C@H](C)[C@H](NC(=O)[C@H](CC(C)C)NC(=O)[C@H](Cc1c[nH]c2ccccc12)NC(=O)[C@H](CCC(N)=O)NC(=O)[C@@H](NC(=O)[C@H](Cc1ccccc1)NC(=O)[C@H](C)NC(=O)[C@H](CCCCNC(=O)COCCOCCNC(=O)COCCOCCNC(=O)CC[C@H](NC(=O)CCCCCCCCCCCCCCCCCCC(=O)O)C(=O)O)NC(=O)[C@H](CCC(N)=O)NC(=O)[C@H](C)NC(=O)[C@@H](NC(=O)[C@H](CCCCN)NC(=O)[C@H](CC(=O)O)NC(=O)[C@H](CC(C)C)NC(=O)C(C)(C)NC(=O)[C@@H](NC(=O)[C@H](CO)NC(=O)[C@H](Cc1ccc(O)cc1)NC(=O)[C@H](CC(=O)O)NC(=O)[C@H](CO)NC(=O)[C@@H](NC(=O)[C@H](Cc1ccccc1)NC(=O)[C@@H](NC(=O)CNC(=O)C[C@H](CC(=O)O)NC(=O)CCNC(=O)C(C)(C)c1cc(F)cc(C#N)c1)[C@@H](C)O)[C@@H](C)O)[C@@H](C)CC)[C@@H](C)CC)C(C)C)C(=O)N[C@@H](C)C(=O)NCC(=O)NCC(=O)N1CCC[C@H]1C(=O)N[C@@H](CO)C(=O)N[C@@H](CO)C(=O)NCC(=O)N[C@@H](C)C(=O)N1CCC[C@H]1C(=O)N1CCC[C@H]1C(=O)N1CCC[C@H]1C(=O)N[C@@H](CO)C(N)=O [Compound 115] ({Isobutyryl(2-(3-CN-5-F-Ph))-βAla}-[β3hD]GTFTSDYSI[Aib]LDKIAQK([AEEA-AEEA-γGlu-C20 diacid])AFVQWLIAGGPSSGAPPPS-NH2) | 1 to 10 nM | 120% | 100 to 1000 nM | 111% | > 1000 nM | > 1000 nM
CC[C@H](C)[C@H](NC(=O)[C@H](CC(C)C)NC(=O)[C@H](Cc1c[nH]c2ccccc12)NC(=O)[C@H](CCC(N)=O)NC(=O)[C@@H](NC(=O)[C@H](Cc1ccccc1)NC(=O)[C@H](C)NC(=O)[C@H](CCCCNC(=O)COCCOCCNC(=O)COCCOCCNC(=O)CC[C@H](NC(=O)CCCCCCCCCCCCCCCCCCC(=O)O)C(=O)O)NC(=O)[C@H](CCC(N)=O)NC(=O)[C@H](C)NC(=O)[C@@H](NC(=O)[C@H](CCCCN)NC(=O)[C@H](CC(=O)O)NC(=O)[C@H](CC(C)C)NC(=O)C(C)(C)NC(=O)[C@@H](NC(=O)[C@H](CO)NC(=O)[C@H](Cc1ccc(O)cc1)NC(=O)[C@H](CC(=O)O)NC(=O)[C@H](CO)NC(=O)[C@@H](NC(=O)[C@H](Cc1ccccc1)NC(=O)[C@@H](NC(=O)CNC(=O)C[C@H](CCC(=O)O)NC(=O)CCNC(=O)C(C)(C)c1cc(F)cc(C#N)c1)[C@@H](C)O)[C@@H](C)O)[C@@H](C)CC)[C@@H](C)CC)C(C)C)C(=O)N[C@@H](C)C(=O)NCC(=O)NCC(=O)N1CCC[C@H]1C(=O)N[C@@H](CO)C(=O)N[C@@H](CO)C(=O)NCC(=O)N[C@@H](C)C(=O)N1CCC[C@H]1C(=O)N1CCC[C@H]1C(=O)N1CCC[C@H]1C(=O)N[C@@H](CO)C(N)=O [Compound 116] ({Isobutyryl(2-(3-CN-5-F-Ph))-βAla}-[β3hE]GTFTSDYSI[Aib]LDKIAQK([AEEA-AEEA-γGlu-C20 diacid])AFVQWLIAGGPSSGAPPPS-NH2) | 10 to 100 nM | 94% | 100 to 1000 nM | 66% | > 1000 nM | > 1000 nM
